From patent publication US20210290741A1, “COMPOSITIONS FOR THE TREATMENT OF GRAFT VERSUS HOST DISEASE” (DA VOLTERRA, priority 2018, published 2021)

Test system: acute Graft vs Host disease
Assay: Acute graft vs host disease after bone marrow + T cell transplant in lethally irradiated mice, survival (Example 5)
Type: in vivo, mice (129, female)
Conditions: 129 mice, C57BL/6 bone marrow + T cells at day 0, imipenem 100 mg/kg s.c. 3 times a week day 10-21, activated charcoal 14.4 mg/g in food day 9-22
Method: 30 mice (129, female) were lethally irradiated and transplanted with 5 million C57BL/6 T-cell depleted bone marrow cells as well as 1 million C57BL/6 splenic T cells at day 0.
The mice were then split in 3 groups. In group A, they received no further treatment. In group B, an imipenem treatment was initiated at day 10. It consisted of an administration of imipenem (100 mg/kg), 3 times a week by subcutaneous route. The imipenem treatment was stopped at day 21. In group C, the same imipenem treatment as group B was performed. In addition, group C mice received activated charcoal (14.4 mg/g) mixed with their food in a hydrogel every day from day 9 to day 22.
The clinical status of the mice was monitored every day from day 1 to day 21.

C[C@@H](O)[C@H]1C(=O)N2C(C(=O)O)=C(SCCN=CN)C[C@H]12 [imipenem]
Survival at day 21: 60%
